Assay results as given in PubChem BioAssay (NCI).
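Cells were grown in 96-well plates and exposed to each compound for 48 hours at five concentrations; endpoints were interpolated linearly between bracketing concentrations, or set to the highest concentration if not reached. At the GI50, growth is halved. TGI: concentration producing complete growth inhibition.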

Columns and labels:
Assay in all cases: NCI-60 cell line screen, 48 h
[1] = test system: SNB-78 CNS
[2] = test system: DMS 114 small cell lung
[3] = test system: SK-MEL-5 melanoma
[4] = test system: SF-295 CNS
[5] = test system: 786-0 renal
[6] = test system: HOP-18 NSCLC
[7] = test system: KM20L2 colon
[8] = test system: NCI-H23 lung
[9] = test system: RXF 393 renal
[10] = test system: NCI/ADR-RES ovarian
[11] = test system: MDA-N
[12] = test system: DU-145 prostate
[13] = test system: MDA-MB-231 breast

SMILES | TGI [1] [µM] | TGI [2] [µM] | TGI [3] [µM] | TGI [4] [µM] | TGI [5] [µM] | TGI [6] [µM] | TGI [7] [µM] | TGI [8] [µM] | TGI [9] [µM] | TGI [10] [µM] | TGI [11] [µM] | TGI [12] [µM] | TGI [13] [µM] | GI50 [13] [µM]
CC1(C2CCC3(C)OC3C2)CO1 (stereo not drawn) | > 100 | > 100 | > 100 | > 100 | > 100 | > 100 | > 100 | > 100 | > 100 | – | – | – | – | –
C#CCC1(C(=O)OCC)C(=O)c2ccccc2N(C)C1=O (stereo not drawn) | > 100 | > 100 | > 100 | > 100 | – | > 100 | > 100 | 36.9 | – | – | – | – | – | –
O=C1C=CC(=O)c2c(Cl)ccc(O)c21 | 41.2 | 33.6 | 33.1 | > 57 | – | 33.4 | 18.5 | 17.1 | 29.7 | 42.1 | – | – | – | –
Cc1nc(-c2cc3cc(Cl)ccc3oc2=O)cc2c1c(=O)oc1ccc(Cl)cc12 | – | – | > 100 | > 100 | > 100 | – | – | > 100 | > 100 | > 100 | > 100 | > 100 | > 100 | –
Cc1csc(NC(=NCCN2CCOCC2)Nc2nc(C)cs2)n1 | > 100 | > 100 | > 100 | > 100 | – | > 100 | > 100 | > 100 | > 100 | > 100 | – | – | – | –
COc1ccc2nc3n(c2c1)CCc1cc(OC)c(OC)cc1-3 | – | – | 47.2 | > 100 | > 100 | – | – | > 100 | > 100 | > 100 | > 100 | > 100 | > 100 | –
CO[C@H]1C[C@H](O[C@H]2CC[C@]3(C=O)[C@H]4CC[C@]5(C)[C@@H](C6=CC(=O)OC6)CC[C@]5(O)[C@@H]4CC[C@]3(O)C2)O[C@H](C)[C@H]1O | – | – | 0.385 | 0.671 | 1.57 | – | – | 0.787 | 0.189 | 2.3 | 1.87 | 0.462 | 5.34 | –
NS(=O)(=O)c1ccc(NNc2c3ccccc3nc3c(C(=O)Nc4ccc(S(=O)(=O)Nc5ncccn5)cc4)cccc23)cc1 | – | – | > 25 | > 25 | > 25 | – | – | > 25 | > 25 | > 25 | > 25 | > 25 | > 25 | –
CCOP(=O)(OCC)C(C)(CC)NC(=O)C(C(F)(F)F)C(F)(F)F (stereo not drawn) | – | – | > 100 | > 100 | > 100 | – | – | > 100 | > 100 | > 100 | > 100 | > 100 | > 100 | > 100
N/C(=N\Nc1ccc(S(N)(=O)=O)cc1)c1cnccn1 | – | – | > 100 | > 100 | > 100 | – | – | > 100 | > 100 | > 100 | > 100 | > 100 | > 100 | –
CC(=O)CC(=O)CCC(=O)O | > 100 | > 100 | – | > 100 | – | > 100 | > 100 | > 100 | > 100 | – | – | – | – | –
CC(C)(C)OC(=O)n1cc(C2CN(O)C(=O)C23CCC(=O)N3Cc2ccccc2)c2ccccc21 (stereo not drawn) | – | – | > 100 | > 100 | > 100 | – | – | > 100 | > 100 | > 100 | > 100 | > 100 | > 100 | –
CCOP(=O)(OCC)/C(C#N)=C/c1cccn1Cc1ccccc1 | – | – | 32.5 | 97.6 | > 100 | – | – | > 100 | > 100 | > 100 | 92.4 | > 100 | 57.5 | –
O=C(/C=C/c1cccs1)c1ccccc1Cl | – | – | 32.5 | 36.2 | 27.8 | – | – | 25.8 | 23.7 | 44.9 | 33.9 | 26.4 | > 54.4 | –
O=C(c1ccco1)N(C(=S)OC12CC3CC(CC(C3)C1)C2)c1ccccc1 | – | – | 35.5 | > 100 | 93.4 | – | – | 87.3 | 44.8 | > 100 | 83.9 | > 100 | > 100 | –
Cc1ccc(/C(O)=C/c2nc3ccc([N+](=O)[O-])cc3nc2/C=C(\O)c2ccc(C)cc2)cc1 | – | – | > 100 | > 100 | > 100 | – | – | > 100 | > 77.5 | > 100 | > 100 | > 100 | > 100 | –
COc1c(C)c(C/C=C(\C)CC/C=C(\C)CCC=C(C)C)c(OC)c(OC)c1OC | – | – | > 100 | > 100 | > 100 | – | – | > 100 | > 100 | > 100 | > 100 | > 100 | > 100 | –
O=C(CC1Sc2ccccc2NC1=O)Nc1ccc(Cl)cc1 (stereo not drawn) | > 100 | > 100 | > 100 | > 100 | – | > 100 | > 100 | > 100 | 67.2 | – | – | – | – | –
